Ends that are not written are not given here.
Key:
[1] = tested on: TRHR with OxR2 (thyrotropin releasing hormone receptor/orexin receptor hetero-dimer/-oligomer); experiment: eBRET/BRET between TRHR/Rluc (or Rluc8) and labelled beta-arrestin with OxR2 co-expressed as IG3; assay type: cell-based
Method: (§1) eBRET measurements at 37 C were carried out on HEK293 cells transiently co-expressing TRHR/Rluc and barr2/Venus with either pcDNA3, orexin receptor 2 (OxR2), CXC chemokine receptor 2 (CXCR2), hemagglutin epitope-tagged melanocortin receptor 3 or 4 (HA-MC3R or HA-MC4R), or dopamine D2 receptor long form (D2LR) or short form (D2SR) following the treatment of each with their respective ligands.
(§2) Phosphate-buffered saline (PBS) was used as a vehicle control.
(§3) Where antagonist was not preincubated, cells were treated with PBS instead for the same amount of time.
as §2
Sigmoidal dose response curves were plotted using Prism (GraphPad), either assuming a Hill slope of 1 or allowing for variable slope.
Phosphate-buffered saline (PBS) was added to the first two rows and the last two rows of the 96-well plate (48 wells in total) as a vehicle control. […] Data presented as fluorescence/luminescence.
(§4) Cells were seeded in 6-well plates at a density of approximately 630,000 cells/well (HEK293FT) or approximately 150,000 cells/well (COS-7) and maintained at 37° C., 5% CO2 in Complete Media (DMEM containing 0.3 mg/ml glutamine, 100 IU/ml penicillin and 100 μg/ml streptomycin (Gibco)) supplemented with 10% fetal calf serum (FCS; Gibco). Transient transfections were carried out 24 h after seeding using GeneJuice (Novagen) or Metafectene (Biontex) according to manufacturer instructions. 24 h post-transfection, cells were washed with PBS, detached using 0.05% trypsin/0.53 mM EDTA, resuspended in HEPES-buffered phenol red free Complete Media containing 5% FCS and added to a poly-L-lysine-coated white microplate (Nunc). 48 h post-transfection, eBRET assays were carried out following pre-incubation of cells with EnduRen™ (Promega) at a final concentration of 30-40 μM, at 37° C., 5% CO2 for 2 h. For original BRET studies, the HEPES-buffered phenol red free Complete Media was replaced with PBS and coelenterazine h (Molecular Probes) added to a final concentration of 5 μM immediately prior to commencing the assay. […] Filtered light emissions were sequentially measured for 3-5 s in each of the ‘donor wavelength window’ (400-475 nm) and ‘acceptor wavelength window’ (>500 nm for EGFP or 520-540 nm for EYFP, Topaz (TYFP) or Venus). The BRET signal observed between interacting proteins is normalized by subtracting the background BRET ratio. […] In the following examples, the first calculation will be used, unless the signal is described as the ligand-induced BRET ratio'.
In this case, data are shown as ‘fluorescence/luminescence’ being the ratio of light emission through the ‘acceptor wavelength window’ over the 400-475 nm emission for a particular cell sample. Unless otherwise stated, BRET signals were measured in 96-well microplates.

TRHR with OxR1 = experiment: eBRET between TRHR/Rluc and barr2/Venus with OxR1 as IG3; assay type: cell-based
Method: as §3, §4
Cells not pretreated with antagonist were pretreated with PBS instead for the same amount of time.

[2] = cited from earlier work
[3] = molecular target: T1, CC chemokine receptor 5 (CCR5) (Homo sapiens, UniProt P51681); experiment: eBRET between CCR5(5)TYFP and barr2/Rluc without IG3 (pcDNA3); assay type: cell-based; details: CCR5(5)TYFP + barr2/Rluc + pcDNA3
T1 construct: expressed in transfected cells; host or cells: HEK293
T1 sequence (P51681 whole entry, species assumed): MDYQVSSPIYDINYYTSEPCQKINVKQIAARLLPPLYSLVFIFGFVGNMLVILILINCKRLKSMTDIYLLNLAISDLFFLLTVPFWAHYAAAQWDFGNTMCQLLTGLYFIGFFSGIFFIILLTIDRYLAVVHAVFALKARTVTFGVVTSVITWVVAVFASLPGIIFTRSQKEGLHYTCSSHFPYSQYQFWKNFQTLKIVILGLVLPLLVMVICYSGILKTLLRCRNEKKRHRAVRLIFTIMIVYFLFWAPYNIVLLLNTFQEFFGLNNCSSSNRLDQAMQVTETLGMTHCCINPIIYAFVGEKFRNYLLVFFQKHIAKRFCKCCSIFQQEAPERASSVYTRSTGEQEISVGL
Method: (§5) Ligand treatments were either monocyte chemoattractant protein 1 (MCP1; CCR2 selective ligand), macrophage inflammatory protein 1b (MIP1b; CCR5 selective ligand), or both MCP1 and MIP1b combined. Phosphate-buffered saline (PBS) was used as a vehicle control.
(§6) Cells were seeded in 6-well plates at a density of approximately 630,000 cells/well (HEK293FT) or approximately 150,000 cells/well (COS-7) and maintained at 37° C., 5% CO2 in Complete Media (DMEM containing 0.3 mg/ml glutamine, 100 IU/ml penicillin and 100 μg/ml streptomycin (Gibco)) supplemented with 10% fetal calf serum (FCS; Gibco). Transient transfections were carried out 24 h after seeding using GeneJuice (Novagen) or Metafectene (Biontex) according to manufacturer instructions. 24 h post-transfection, cells were washed with PBS, detached using 0.05% trypsin/0.53 mM EDTA, resuspended in HEPES-buffered phenol red free Complete Media containing 5% FCS and added to a poly-L-lysine-coated white microplate (Nunc). 48 h post-transfection, eBRET assays were carried out following pre-incubation of cells with EnduRen™ (Promega) at a final concentration of 30-40 μM, at 37° C., 5% CO2 for 2 h. For original BRET studies, the HEPES-buffered phenol red free Complete Media was replaced with PBS and coelenterazine h (Molecular Probes) added to a final concentration of 5 μM immediately prior to commencing the assay. BRET measurements were taken at 37° C. using the Victor Light plate reader with Wallac 1420 software (Perkin-Elmer). Filtered light emissions were sequentially measured for 3-5 s in each of the ‘donor wavelength window’ (400-475 nm) and ‘acceptor wavelength window’ (>500 nm for EGFP or 520-540 nm for EYFP, Topaz (TYFP) or Venus). The BRET signal observed between interacting proteins is normalized by subtracting the background BRET ratio. […]

CCR5 with CCR2 = molecular target: T2, CCR5 with CCR2 (Homo sapiens, UniProt P41597+P51681); experiment: eBRET between CCR5(5)TYFP and barr2/Rluc with CCR2 as IG3; assay type: cell-based; details: CCR5(5)TYFP + barr2/Rluc + CCR2
T2 construct: expressed in transfected cells; host or cells: HEK293
T2 sequence (P51681 whole entry, species assumed): as above
T2 sequence (P41597 whole entry, species assumed): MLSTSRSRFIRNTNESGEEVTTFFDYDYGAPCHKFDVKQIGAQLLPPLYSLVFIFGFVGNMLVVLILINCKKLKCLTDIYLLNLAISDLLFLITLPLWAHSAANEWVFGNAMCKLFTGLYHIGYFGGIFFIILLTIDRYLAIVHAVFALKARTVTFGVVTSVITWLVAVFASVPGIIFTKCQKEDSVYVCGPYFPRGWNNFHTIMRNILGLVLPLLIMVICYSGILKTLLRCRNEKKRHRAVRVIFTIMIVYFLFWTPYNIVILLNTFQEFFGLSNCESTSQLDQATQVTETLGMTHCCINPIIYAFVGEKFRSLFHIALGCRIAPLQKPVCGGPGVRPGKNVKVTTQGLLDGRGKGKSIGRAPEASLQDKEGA
Method: as §5
BRET measurements at 37 C were carried out on HEK293 cells transiently co-expressing CCR5(5)TYFP (contains a 5 amino acid linker between CCR5 and TYFP), barr2/Rluc and CCR2 treated with increasing doses of monocyte chemoattractant protein 1 (MCP1; CCR2 selective ligand). A sigmoidal dose response curve was plotted using Prism (GraphPad) allowing for variable slope.
Cells were seeded in 6-well plates at a density of approximately 630,000 cells/well (HEK293FT) or approximately 150,000 cells/well (COS-7) and maintained at 37° C., 5% CO2 in Complete Media (DMEM containing 0.3 mg/ml glutamine, 100 IU/ml penicillin and 100 μg/ml streptomycin (Gibco)) supplemented with 10% fetal calf serum (FCS; Gibco). […] BRET measurements were taken at 37° C. using the Victor Light plate reader with Wallac 1420 software (Perkin-Elmer). Filtered light emissions were sequentially measured for 3-5 s in each of the ‘donor wavelength window’ (400-475 nm) and ‘acceptor wavelength window’ (>500 nm for EGFP or 520-540 nm for EYFP, Topaz (TYFP) or Venus). […]

[4] = tested on: thyrotropin releasing hormone receptor (TRHR); experiment: eBRET/BRET beta-arrestin recruitment to TRHR/Rluc without IG3 (pcDNA3) in HEK293 cells; assay type: cell-based
Method: as §1
Ligand treatments were either OxA or TRH only or both OxA and TRH combined. Phosphate-buffered saline (PBS) was used as a vehicle control.
Ligand treatments were either OxA or TRH only. Phosphate-buffered saline (PBS) was used as a vehicle control.
BRET measurements at 37 C were carried out on HEK293 cells transiently co-expressing TRHR/Rluc, barr2/Venus and pcDNA3 with increasing doses of TRH. Sigmoidal dose response curves were plotted using Prism (Graph Pad), either assuming a Hill slope of 1 or allowing for variable slope. The EC50 and Hill slope values for the variable slope curve are included in a table in the graph.
TRHR is IG1, Rluc is RC1, barr1 is IG2, EGFP is RC2 and OxR2 is IG3. The same amount of EGFP/barr1 (IG2-RC2) is transfected for each experiment.
Cells were seeded in 6-well plates at a density of approximately 630,000 cells/well (HEK293FT) or approximately 150,000 cells/well (COS-7) and maintained at 37° C., 5% CO2 in Complete Media (DMEM containing 0.3 mg/ml glutamine, 100 IU/ml penicillin and 100 μg/ml streptomycin (Gibco)) supplemented with 10% fetal calf serum (FCS; Gibco). Transient transfections were carried out 24 h after seeding using GeneJuice (Novagen) or Metafectene (Biontex) according to manufacturer instructions. 24 h post-transfection, cells were washed with PBS, detached using 0.05% trypsin/0.53 mM EDTA, resuspended in HEPES-buffered phenol red free Complete Media containing 5% FCS and added to a poly-L-lysine-coated white microplate (Nunc). 48 h post-transfection, eBRET assays were carried out following pre-incubation of cells with EnduRen™ (Promega) at a final concentration of 30-40 μM, at 37° C., 5% CO2 for 2 h. For original BRET studies, the HEPES-buffered phenol red free Complete Media was replaced with PBS and coelenterazine h (Molecular Probes) added to a final concentration of 5 μM immediately prior to commencing the assay. BRET measurements were taken at 37° C. using the Victor Light plate reader with Wallac 1420 software (Perkin-Elmer). Filtered light emissions were sequentially measured for 3-5 s in each of the ‘donor wavelength window’ (400-475 nm) and ‘acceptor wavelength window’ (>500 nm for EGFP or 520-540 nm for EYFP, Topaz (TYFP) or Venus). The BRET signal observed between interacting proteins is normalized by subtracting the background BRET ratio. This can be done in one of two ways (see Pfleger et al. (2006) Cell Signal 18, 1664-1670; Pfleger et al. (2006) Nat Protoc 1, 336-344): 1) the ratio of light emission through the ‘acceptor wavelength window’ over the 400-475 nm emission for a cell sample containing only the donor construct is subtracted from the same ratio for a sample containing the interacting acceptor and donor fusion proteins; 2) the ratio of light emission through the ‘acceptor wavelength window’ over the 400-475 nm emission for a cell sample treated with vehicle is subtracted from the same ratio for a second aliquot of the same cell sample treated with ligand. In the following examples, the first calculation will be used, unless the signal is described as the ligand-induced BRET ratio'.

[5] = tested on: TRHR335 (truncated TRHR) with OxR2; experiment: eBRET/BRET between TRHR335/Rluc and labelled beta-arrestin with OxR2 as IG3; assay type: cell-based; details: TRHR335/Rluc + EGFP/barr1 + OxR2
TRHR335 with TRHR = experiment: eBRET between TRHR335/Rluc and EGFP/barr1 with TRHR as IG3; assay type: cell-based
Method: Ligand treatments were either OxA or TRH only.
as §6, with “For original BRET studies, the HEPES-buffered phenol red free Complete Media was replaced with PBS and coelenterazine h (Molecular Probes) added to a final concentration of 5 μM immediately prior to commencing the assay.” left out, “Venus).” for “Venus). The BRET signal observed between interacting proteins is normalized by subtracting the background BRET ratio.”

[6] = 10^−6M antagonist approx. 40 minutes before 10^−6M OxA
[7] = 10^−6M antagonist approx. 40 minutes before 10^−6M TRH and OxA

Cc1nc2ccc(NC(=O)Nc3ccnc4cccnc34)cc2o1.Cl [SB-334867-A, 1-(2-methylbenzoxazol-6-yl)-3-[1,5]naphthyridin-4-yl urea hydrochloride]
effect of antagonist pretreatment on OxA-induced eBRET signal [1, 6]: not affected
effect of antagonist pretreatment on TRH + OxA-induced eBRET signal [1, 7]: did not differ
effect of antagonist pretreatment on OxA-induced eBRET signal (TRHR with OxR1; [6]): reduced
effect of antagonist pretreatment on TRH + OxA-induced eBRET signal (TRHR with OxR1; [7]): reduced

CN1C(=O)C[C@@H](C(=O)N[C@@H](Cc2c[nH]cn2)C(=O)N2CCC[C@H]2C(N)=O)NC1=O.O.O.O.O [TA-0910, (−)-N—[(S)-hexahydro-1-methyl-2,6-dioxo-4-pyrimidinylcarbonyl]-L-histidyl-L-prolinamide tetrahydrate]
slow wave sleep (SWS) and rapid eye movement (REM) sleep ([2]; dose- and time-dependent manner): significantly reduced
cataplexy ([2]; in most of the animals studied): completely suppressed

MCP1: Monocyte chemoattractant protein 1 (CCR2 selective ligand)
eBRET signal [3]: no eBRET signal
effect of MCP1 addition on MIP1b-induced eBRET signal [3]: made no difference
eBRET signal (CCR5 with CCR2): able to produce a signal

OxA: Orexin A, orexin receptor modulator used as IG3 ligand (QPLPDCCRQKTCSCRLYELLHGAGNHAAGILTL; not fully specified; ends and bridges not checked; UniProt O43612 34-66, looked up)
cumulative eBRET signal ([4]; TRHR/Rluc + EGFP/barr1, 0 μg OxR2 DNA/well, 10^−6M OxA, 83 mins): no signal was recorded
effect of OxA on TRH-induced eBRET signal ([4]; TRHR/Rluc + EGFP/barr1 or EGFP/barr2, no OxR2, OxA present with TRH): no difference
eBRET signal ([4]; TRHR/Rluc + EGFP/barr (barr1, barr2 or barr1R169E), no OxR2): No increase in eBRET signal above baseline
eBRET signal ([1]; Example 3: TRHR/Rluc + barr2/Venus + OxR2, 10^−6M OxA, PBS pretreatment): eBRET signal was observed
time to reach eBRET signal ([1]; HEK293, TRHR/Rluc + barr2/Venus + OxR2, ligand 10^−6M): up to 30 minutes
eBRET signal ([1]; HEK293, TRHR/Rluc + barr2/Venus + OxR2, ligand 10^−6M, 37 C): 0.07-0.08
time to eBRET signal plateau ([1]; TRHR/Rluc + EGFP/barr1R169E + OxR2 (lower signal than EGFP/barr1)): ≤ 20 min
time to eBRET signal plateau ([1]; TRHR/Rluc + EGFP/barr1 or EGFP/barr2 + HA-OxR2): more than 10 minutes
time to eBRET signal plateau ([1]; TRHR/Rluc + EGFP/barr1 or EGFP/barr2 + OxR2): more than 10 minutes
dose-response Hill slopes ([1]; TRHR/Rluc + barr2/Venus + OxR2, coelenterazine h and EnduRen, FIG. 12): greater than 1
eBRET signal (TRHR with OxR1; TRHR/Rluc + barr2/Venus + OxR1, agonist 10^−6M): small eBRET signal
time to eBRET signal plateau [5]: about 20 minutes
eBRET signal (TRHR335 with TRHR): no eBRET signal above baseline

B1: MIP1b: Macrophage inflammatory protein 1b (CCR5 selective ligand) (protein, UniProt P13236 24-92, looked up)
C-C motif chemokine 4: APMGSDPPTACCFSYTARKLPRNFVVDYYETSSLCSQPAVVFQTKRSKQVCADPSESWVQEYVYDLELN
eBRET signal [3]: robust signal
eBRET signal (CCR5 with CCR2): produced a signal

Reference: patent publication US8568997B2, “Detection system and uses therefor” (Dimerix Bioscience Pty Ltd., priority 2006, dated 2013)
